Test results as given in patent publication US11155517B2, “4-substituted phenylamine derivatives and their use to protect crops by fighting undesired phytopathogenic micoorganisms” (PI INDUSTRIES LTD., priority 2016, dated 2021).

How the values were obtained:
Alternaria solani [1] = experiment: Greenhouse Alternaria solani test in tomato, preventive; type: in vivo; settings: 24 h, tomato plants sprayed one day before inoculation, read-out: Efficacy (% control), disease severity vs untreated check
Experimental: Compounds were dissolved in 2% DMSO/Acetone & then mixed with water to calibrated spray volume of 50 ml. This 50 ml spray solution was poured into the spray bottles for further applications. To test the preventive activity of compounds, healthy young Tomato plants raised in the greenhouse were sprayed with active compound preparation at the stated application rates inside the spray cabinets using hallowcone nozzles. One day after treatment, the plants were inoculated with spore suspension (2% Malt) containing 0.24×10^6 Alternaria solani inoculum. The inoculated plants were then kept in greenhouse chamber at 22-24° C. temperature and 90-95% relative humidity for disease expression. […] Efficacy (% control) of the compounds was calculated by comparing the disease rating in the treatment with untreated control. The sprayed plants were also assessed for compound's phytotoxic effects by recording symptoms like necrosis, chlorosis and stunting.

Pyricularia oryzae = experiment: microbe, parasite or virus in culture; type: cell-based; settings: 168 h, read-out: % control compared to the untreated check (radial growth)
Rhizoctonia solani = Rhizoctonia solani (rice sheath blight/potato black scurf) in vitro test, radial growth on Potato Dextrose Agar; type: cell-based; settings: 168 h, 300 ppm, seven days, 25° C., read-out: % control compared to the untreated check (radial growth)
Alternaria solani [2] = experiment: Alternaria solani (early blight of tomato/potato) in vitro test, radial growth on Potato Dextrose Agar; type: cell-based; settings: 168 h, 300 ppm, seven days, 25° C., read-out: % control compared to the untreated check (radial growth)
Colletotrichum capsici = Colletotrichum capsici (anthracnose) in vitro test, radial growth on Potato Dextrose Agar; type: cell-based; settings: Colletotrichum truncatum, 168 h; 300 ppm; seven days, 25° C.; read-out: % control compared to the untreated check (radial growth)
Fusarium culmorum [3] = experiment: Fusarium culmorum (foot rot of cereals) in vitro test, radial growth on Potato Dextrose Agar; type: cell-based; settings: Fusarium culmorum, 168 h, read-out: % control compared to the untreated check (radial growth)
Botrytis cinera = experiment: Greenhouse Botrytis cinera test in tomato, preventive; type: in vivo; settings: 24 h, plants sprayed one day before inoculation, read-out: Efficacy (% control), disease severity vs untreated check
Botrytis cinerea = Botrytis cinerea (gray mold) in vitro test, radial growth on Potato Dextrose Agar; type: cell-based; settings: 168 h, 300 ppm, seven days, 22° C., read-out: % (control) compared to the untreated check (radial growth)
Septoria lycopersici = Septoria lycopersici (leaf spot of tomato) in vitro test, radial growth on Potato Dextrose Agar; type: cell-based; settings: 168 h, seven days, 25° C., read-out: % control compared to the untreated check (radial growth)
Fusarium culmorum [4] = experiment: Greenhouse Fusarium culmorum test in wheat, preventive; type: in vivo; settings: 24 h, read-out: Efficacy (% control), disease severity vs untreated check
Experimental: Compounds were dissolved in 2% DMSO/Acetone & then mixed with water to calibrated spray volume of 50 ml. This 50 ml spray solution was poured into the spray bottles for further applications.
To test the preventive activity of compounds, healthy young wheat plants raised in the greenhouse were sprayed with active compound preparation at the stated application rates inside the spray cabinets using hallowcone nozzles. One day after treatment, the plants were inoculated with spore suspension (2% Malt) containing 2×10^6 Fusarium culmorum inoculum. The inoculated plants were then kept in greenhouse chamber at 24° C. temperature and 80-90% relative humidity for disease expression.
A visual assessment of compound's performance was carried by rating the disease severity (0-100% scale) on treated plants on 3, 7, 10 and 15 days after application. Efficacy (% control) of the compounds was calculated by comparing the disease rating in the treatment with untreated control. The sprayed plants were also assessed for compound's phytotoxic effects by recording symptoms like necrosis, chlorosis and stunting.

SMILES	pest or weed control at 500 ppm (Alternaria solani [1]) [%]	inhibition of growth at 300 ppm (Pyricularia oryzae) [%]	inhibition of growth at 300 ppm (Rhizoctonia solani) [%]	inhibition of growth at 300 ppm (Alternaria solani [2]) [%]	inhibition of growth at 300 ppm (Colletotrichum capsici) [%]	inhibition of growth at 300 ppm (Fusarium culmorum [3]) [%]	pest or weed control at 500 ppm (Botrytis cinera) [%]	inhibition of growth at 300 ppm (Botrytis cinerea) [%]	inhibition of growth at 300 ppm (Septoria lycopersici) [%]	pest or weed control at 500 ppm (Fusarium culmorum [4]) [%]
CCN(C)C=Nc1cc(C)c(Cc2ccc(Cl)cc2Cl)cc1Cl [Compound 179, N′-(2-chloro-4-(2,4-dichlorobenzyl)-5-methylphenyl)-N-ethyl-N-methylformimidamide]	70 to 100	> 75	> 80	> 75	> 80	75	70 to 100	> 80		
CCN(C)C=Nc1cc(C)c(Cc2cccc(Cl)c2Cl)cc1Cl [Compound 128, N′-(2-chloro-4-(2,3-dichlorobenzyl)-5-methylphenyl)-N-ethyl-N-methylformimidamide]	70 to 100	> 75	> 80	> 75	> 80			> 80	> 70	
CCN(C)C=Nc1cc(C)c(C(OC)c2ccccc2)cc1C (stereo not drawn) [Compound 2, N-ethyl-N′-(4-(methoxy(phenyl)methyl)-2,5-dimethylphenyl)-N-methylformimidamide]	70 to 100	> 75	> 80	> 75			70 to 100			
CCN(C)C=Nc1cc(C)c(Cc2ccccc2C#N)cc1C [Compound 115, N′-(4-(2-cyanobenzyl)-2,5-dimethylphenyl)-N-ethyl-N-methylformimidamide]	70 to 100	> 75	> 80	> 75	> 80					
CCN(C)C=Nc1cc(C)c(Cc2cc(F)ccc2Cl)cc1Cl [Compound 178, N′-(2-chloro-4-(2-chloro-5-fluorobenzyl)-5-methylphenyl)-N-ethyl-N-methylformimidamide]	70 to 100	> 75	> 80	> 75	> 80	75		> 80	> 70	
CCN(C)C=Nc1cc(F)c(Cc2ccc(C)cc2)cc1C [Compound 175, N-ethyl-N′-(5-fluoro-2-methyl-4-(4-methylbenzyl)phenyl)-N-methylformimidamide]	70 to 100	> 75	> 80	> 75	> 80	75		> 80	> 70	
CCN(C)C=Nc1cc(F)c(Cc2ccccc2Cl)cc1C [Compound 174, N′-(4-(2-chlorobenzyl)-5-fluoro-2-methylphenyl)-N-ethyl-N-methylformimidamide]	70 to 100	> 75	> 80	> 75	> 80	75		> 80	> 70	
Cc1cc(N=CN2CCOCC2)c(C)cc1Cc1cccc(Br)c1F [Compound 36, N-(4-(3-bromo-2-fluorobenzyl)-2,5-dimethylphenyl)-1-morpholinomethanimine]	70 to 100	> 75	> 80							
CCN(C)C=Nc1cc(C)c(Cc2ccc(SC)cc2)cc1C [Compound 8, N′-(2,5-dimethyl-4-(4-(methylthio)benzyl)phenyl)-N-ethyl-N-methylformimidamide]	70 to 100	> 75	> 80	> 75	> 80			> 80	> 70	
CCN(C)C=Nc1cc(C)c(Cc2cc(F)cc(Cl)c2)cc1Cl [Compound 176, N′-(2-chloro-4-(3-chloro-5-fluorobenzyl)-5-methylphenyl)-N-ethyl-N-methylformimidamide]	70 to 100	> 75	> 80	> 75	> 80	75		> 80	> 70	
CCN(C)C=Nc1cc(C)c(Cc2ccccc2S(C)(=O)=O)cc1C [Compound 25, N′-(2,5-dimethyl-4-(2-(methylsulfonyl)benzyl)phenyl)-N-ethyl-N-methylformimidamide]	70 to 100	> 75	> 80	> 75	> 80		70 to 100		> 70	
CCN(C)C=Nc1cc(C)c(Cc2ccc(C#N)cc2)cc1Cl [Compound 68, N′-(2-chloro-4-(4-cyanobenzyl)-5-methylphenyl)-N-ethyl-N-methylformimidamide]	70 to 100	> 75	> 80	> 75		75			> 70	
CCN(C)C=Nc1cc(C)c(Cc2ccc(C(F)(F)F)cc2)cc1C [Compound 97, N′-(2,5-dimethyl-4-(4-(trifluoromethyl)benzyl)phenyl)-N-ethyl-N-methylformimidamide]	70 to 100									
CCN(C)C=Nc1cc(C)c(Cc2ccc(F)cc2F)cc1C [Compound 161, N′-(4-(2,4-difluorobenzyl)-2,5-dimethylphenyl)-N-ethyl-N-methylformimidamide]	70 to 100	> 75	> 80	> 75	> 80	75		> 80	> 70	
Cc1cc(N=CN2CCOCC2)c(Cl)cc1Cc1ccccc1Cl [Compound 40, N-(2-chloro-4-(2-chlorobenzyl)-5-methylphenyl)-1-morpholinomethanimine]	70 to 100						70 to 100	> 80		
CCN(C)C=Nc1cc(C)c(Cc2ccccc2Cl)cc1C [Compound 18, N′-(4-(2-chlorobenzyl)-2,5-dimethylphenyl)-N-ethyl-N-methylformimidamide]		> 75	> 80	> 75	> 80	75	70 to 100	> 80	> 70	70 to 100
CCN(C)C=Nc1cc(C)c(Cc2cccc([N+](=O)[O-])c2)cc1Cl [Compound 71, N′-(2-chloro-5-methyl-4-(3-nitrobenzyl)phenyl)-N-ethyl-N-methylformimidamide]	70 to 100	> 75	> 80	> 75	> 80	75		> 80	> 70	
CCN(C)C=Nc1cc(C)c(Cc2ccccc2[N+](=O)[O-])cc1C [Compound 50, N′-(2,5-dimethyl-4-(2-nitrobenzyl)phenyl)-N-ethyl-N-methylformimidamide]	70 to 100	> 75	> 80	> 75	> 80	75		> 80	> 70	
